The source of these data is patent US20170044208A1, “SELECTIVE GLUCOCORTICOID RECEPTOR LIGANDS” (The University of Manchester, priority 2013, published 2017).

As a reminder, the IC50 is the concentration at which inhibition is half-maximal. As a reminder, the EC50 is the concentration at which the effect is half-maximal.

Read-outs that look alike come from different tables or passages of the source.

One series deals with rat adjuvant arthritis. The series is described as follows: Established rat adjuvant arthritis. Format: in vivo. The settings on record: increasing doses, FIG. 7. The text has this:
Established rat arthritis was chosen as the most relevant predictive model for chronic inflammatory arthritis in man. The disease is initiated with a caudal injection of complete Freund's adjuvant and the disease is established after 14 days. Anti-inflammatory molecules are given orally, usually once a day and after 7 days the animals are sacrificed. Paw volumes are the primary measurement and as a secondary measure inflammatory lesions are scored at a number of sites. At autopsy adrenal, spleen and thymus weights are recorded.
The arthritis score for the rats was used in these studies, as the inflammatory disease consists of both destructive inflammatory arthritis, but also systemic manifestations.
This analysis uses the area under the curve of arthritis score over the course of the experiment to yield a single, integrated measure for each experimental animal. The area under the curve of the vehicle treated animal is indicated on the graph for comparison purposes, but marked at an arbitrary log dose.

A further series deals with osteoblast activity. The series is described as follows: Rat bone formation assay, serum osteocalcin. In kind it is in vivo. The following applies: daily oral, terminal (35 day) plasma, FIG. 9.
The test system of the next series is endosteal bone formation. The series is described as follows: Rat endosteal bone increment. In kind it is in vivo. The following applies: daily oral dose, FIG. 10. The text has this:
However, osteoblast activity is not uniform across the skeleton, which may result in either over, or under estimation of the steroid effect. In young, growing, rats long bone remodelling during bone growth offers an attractive model to study active bone formation as the endosteal surface has new bone formation as the diameter of the shaft decreases due to endosteal bone formation, and periosteal bone resorption. As shown in FIG. 11 (CT reconstruction) as long bones grow the diameter of the shaft at the growing end (20% mark) is greater than that towards the middle of the bone (30% and 40% marks) due to loss of bone at the outer surface, or periosteal surface, and deposition of bone, due to osteoblast action, on the inner surface, or endosteal surface.
In contrast, there was no effect of Dex124 seen until 100 mg/Kg, giving an estimated IC50 of approximately 90 mg/Kg.

Series [1] deals with T1, mineralocorticoid receptor (MR) (Homo sapiens, UniProt P08235).
T1 sequence (P08235 1-984): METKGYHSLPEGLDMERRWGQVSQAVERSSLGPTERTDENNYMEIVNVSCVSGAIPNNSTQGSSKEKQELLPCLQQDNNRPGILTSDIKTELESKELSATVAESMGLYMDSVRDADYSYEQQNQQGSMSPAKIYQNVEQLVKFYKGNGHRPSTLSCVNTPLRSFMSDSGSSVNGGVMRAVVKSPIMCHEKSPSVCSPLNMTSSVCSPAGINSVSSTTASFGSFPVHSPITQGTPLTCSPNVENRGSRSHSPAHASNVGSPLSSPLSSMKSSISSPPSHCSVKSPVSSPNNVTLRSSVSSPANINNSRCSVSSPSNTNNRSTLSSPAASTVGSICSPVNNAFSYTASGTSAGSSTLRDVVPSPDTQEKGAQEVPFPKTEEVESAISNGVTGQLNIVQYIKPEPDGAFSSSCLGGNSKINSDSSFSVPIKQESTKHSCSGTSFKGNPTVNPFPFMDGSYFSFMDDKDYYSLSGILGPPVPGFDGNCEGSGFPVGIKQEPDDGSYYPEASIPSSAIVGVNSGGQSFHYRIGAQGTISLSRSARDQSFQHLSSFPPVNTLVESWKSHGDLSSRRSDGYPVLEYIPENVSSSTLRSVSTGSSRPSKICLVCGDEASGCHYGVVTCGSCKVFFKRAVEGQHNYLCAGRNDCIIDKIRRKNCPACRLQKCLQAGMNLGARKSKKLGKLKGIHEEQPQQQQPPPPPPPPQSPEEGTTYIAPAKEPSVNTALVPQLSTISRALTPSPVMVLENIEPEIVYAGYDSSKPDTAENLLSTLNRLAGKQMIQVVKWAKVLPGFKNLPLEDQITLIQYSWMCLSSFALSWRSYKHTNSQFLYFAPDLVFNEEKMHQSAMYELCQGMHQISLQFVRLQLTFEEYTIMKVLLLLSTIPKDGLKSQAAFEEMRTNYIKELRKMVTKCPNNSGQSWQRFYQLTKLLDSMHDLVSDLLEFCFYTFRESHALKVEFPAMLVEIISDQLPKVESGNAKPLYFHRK
Put plainly: Steroid receptor cross-reactivity, mineralocorticoid receptor. In kind it is cell-based. The following applies: FIG. 3. The text has this:
There is a high degree of structural similarity between the various human steroid receptors. Ligands may therefore cross-react with other members of the steroid receptor family. In particular progesterone receptor and mineralocorticoid receptor show the highest structural similarity.

A further series concerns NFkB. Put plainly: Transrepression assay (NFκB-LUC reporter in HeLa cells, TNF stimulated). Format: cell-based. The settings on record: for IC50 / Emax: Homo sapiens, HeLa; for TR %: maximal NFkB repression compared to Dexamethasone; for Emax: 16 h, read-out: TR Max %. As for the experimental part:
HeLa cells were seeded at 80×10^4 cells/dish in 100 mm dishes. Cells were transfected the next day with NFκB-LUC reporter (5 μg) and pGL4-hRLuc (0.1 μg), in 0.25 mL of Opti-MEM I using FuGENE HD (15 μL). After 24 hours, cells were trypsinized and seeded in to 24-well plates at a density of 8-10×10^4 cells/mL. Following overnight incubation, cells were starved for a further 24 hours in DMEM.
On the day of the experiment, compounds were added to cells one hour prior to the addition of […] (0.5 ng/mL). After a further 16 hours, cells were washed twice with ice-cold PBS, then lysed with 100 μL of 1×PLB.
(§1) Firefly and Renilla luciferase activity was measured using the Dual Luciferase Reporter system following the manufacturer's protocol.
(§2) IC50 and EC50 values were calculated by using GraphPad Prism 5.0. Briefly, luminescence values for luciferase were normalised using the Renilla luminescence values. The normalised values were input into GraphPad Prism 5.0. Non-linear regression analysis was carried out using the “log(concentration) vs. response” equation of the software, with a Hill slope coefficient fixed at 1.
(§3) IC50 and EC50 values are mean values in nM of all IC50/EC50 values for the compound. Max % values are mean values of the Max% activity.

Series [2] concerns the target T2, Glucocorticoid Receptor (GR) (Homo sapiens, UniProt P04150).
T2 construct: Cells were transfected the next day with MMTV-Luc (5 μg) and pGL4-hRLuc (0.1 μg); endogenous in cells; host or cells: HeLa
T2 sequence (P04150 1-777): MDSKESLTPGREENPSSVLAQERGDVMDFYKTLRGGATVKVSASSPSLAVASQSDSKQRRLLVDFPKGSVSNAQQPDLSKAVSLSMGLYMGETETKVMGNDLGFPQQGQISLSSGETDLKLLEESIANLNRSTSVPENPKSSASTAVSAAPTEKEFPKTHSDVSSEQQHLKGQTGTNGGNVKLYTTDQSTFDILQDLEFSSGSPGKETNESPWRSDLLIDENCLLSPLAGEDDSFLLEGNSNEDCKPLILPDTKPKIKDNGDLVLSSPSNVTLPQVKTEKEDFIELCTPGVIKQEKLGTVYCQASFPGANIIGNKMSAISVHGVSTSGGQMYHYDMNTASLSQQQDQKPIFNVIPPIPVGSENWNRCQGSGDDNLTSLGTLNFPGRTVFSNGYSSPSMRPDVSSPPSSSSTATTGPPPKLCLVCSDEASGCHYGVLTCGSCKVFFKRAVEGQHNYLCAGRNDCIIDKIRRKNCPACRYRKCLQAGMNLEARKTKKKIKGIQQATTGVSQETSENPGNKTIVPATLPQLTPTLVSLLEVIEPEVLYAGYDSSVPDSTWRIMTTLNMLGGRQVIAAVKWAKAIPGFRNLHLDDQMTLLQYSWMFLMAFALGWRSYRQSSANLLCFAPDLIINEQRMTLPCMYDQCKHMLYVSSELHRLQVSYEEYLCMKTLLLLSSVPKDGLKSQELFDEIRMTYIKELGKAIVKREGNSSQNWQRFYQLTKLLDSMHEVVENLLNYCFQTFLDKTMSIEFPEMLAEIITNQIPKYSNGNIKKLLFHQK
Put plainly: Transactivation assay (MMTV-Luc reporter in HeLa cells). In kind it is cell-based. The settings on record: for TA %: comparison table, against maximal activation seen with dexamethasone; for Emax / EC50: HeLa; for Emax: 16 h, read-out: TA Max %; for EC50: concentration for half-maximal transactivation, MMTV-Luc, 16 hours, mean, read-out: TA EC50. As to the method: HeLa cells were seeded at 80×10^4 cells/dish in 100 mm dishes. Cells were transfected the next day with MMTV-Luc (5 μg) and pGL4-hRLuc (0.1 μg), in 250 μL of Opti-MEM I using FuGENE HD (15 μL). After 24 hours, cells were trypsinized and seeded into 96-well plates at a density of 8-10×10^4 cells/mL.
Following overnight incubation to allow attachment, cells were treated with the required concentration of compounds, then further incubated for 16 hours. Media was aspirated and cells lysed in 40 μL of 1×PLB.
as §1, §2, §3

A further series has as its target T3, progesterone receptor (Homo sapiens, UniProt P06401).
T3 sequence (P06401 1-933): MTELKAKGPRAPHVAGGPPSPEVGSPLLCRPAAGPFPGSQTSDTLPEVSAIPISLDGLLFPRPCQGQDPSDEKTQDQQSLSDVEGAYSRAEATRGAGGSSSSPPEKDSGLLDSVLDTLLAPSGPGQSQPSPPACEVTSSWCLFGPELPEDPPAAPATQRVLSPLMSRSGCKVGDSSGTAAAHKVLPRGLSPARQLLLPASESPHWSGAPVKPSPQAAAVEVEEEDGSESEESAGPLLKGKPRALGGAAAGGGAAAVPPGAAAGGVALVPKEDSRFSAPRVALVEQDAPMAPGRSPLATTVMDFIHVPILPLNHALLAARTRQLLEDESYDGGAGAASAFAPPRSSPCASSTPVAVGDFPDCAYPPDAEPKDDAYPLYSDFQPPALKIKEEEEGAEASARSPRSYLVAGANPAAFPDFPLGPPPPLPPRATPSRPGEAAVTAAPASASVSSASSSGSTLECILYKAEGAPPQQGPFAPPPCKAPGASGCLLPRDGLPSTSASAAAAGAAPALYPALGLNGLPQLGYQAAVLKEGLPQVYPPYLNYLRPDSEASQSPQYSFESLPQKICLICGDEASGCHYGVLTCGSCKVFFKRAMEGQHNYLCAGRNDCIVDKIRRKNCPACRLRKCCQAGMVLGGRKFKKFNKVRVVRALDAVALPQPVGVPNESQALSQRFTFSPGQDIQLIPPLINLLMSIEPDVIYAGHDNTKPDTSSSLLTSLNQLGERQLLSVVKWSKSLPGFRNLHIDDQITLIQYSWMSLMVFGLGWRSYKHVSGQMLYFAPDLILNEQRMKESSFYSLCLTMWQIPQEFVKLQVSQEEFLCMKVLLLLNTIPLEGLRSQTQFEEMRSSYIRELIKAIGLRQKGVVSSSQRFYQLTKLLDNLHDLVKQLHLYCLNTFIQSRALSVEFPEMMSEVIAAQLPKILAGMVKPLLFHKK
The following applies: cited from earlier work.

The next series addresses T4, GR (Homo sapiens, UniProt P04150).
T4 sequence (P04150 1-777): T2 sequence (P04150 1-777)
The settings on record: further analyses, Vayssiere et al. 1997; cited from earlier work.

The test system of another series is apoptosis. The settings on record: cited from earlier work.
[3] abbreviates: comparison table, half-maximal repression of NFkB, multiple experiments, read-out: IC50.
Where [4] appears, read: concentration for half-maximal repression of NFkB, TNF 0.5 ng/mL, 16 hours, mean, read-out: TR IC50.

From the text for osteoblast activity: For the analysis of bone metabolism, and its regulation by orally administered GC, a rat bone formation assay was used.
Terminal (35 day) plasma was harvested, and osteocalcin measured, as an integrated measure of osteoblast activity across the skeleton.

Turning to `C[C@]12C=CC(=O)C=C1CC[C@@H]1[C@@H]2[C@@H](O)C[C@@]2(C)[C@H]1CC[C@]2(O)C(=O)CO` [Pred, prednisolone], the “arthritis clinical score (AUC)” value with rat adjuvant arthritis is listed as “inhibit arthritis clinical score”. For the same compound, the osteocalcin concentration result with osteoblast activity is “dose-dependent inhibition of osteocalcin concentration”. Further, the “IC50 for decrease in bone increment” value with endosteal bone formation worked out at 7.8 mg/kg. Further, in series [1], the “activity on mineralocorticoid receptor” value is recorded as “significant activity”. Besides, the IC50 in the series with NFkB (setting [3]) was 12.9 nM. Also, the TR % in the series on NFkB (comparison table) worked out at 99%. This compound returned a TA % in series [2] of 68%.
As to `C[C@@H]1C[C@H]2[C@@H]3CCC4=CC(=O)C=C[C@]4(C)[C@@]3(F)[C@@H](O)C[C@]2(C)[C@H]1C(=O)CC#N` [RU24858], the progesterone receptor activation result at progesterone receptor is “activating the progesterone receptor”. At GR, the GR agonist character result was “low potency, low efficacy full agonist”. The induction of apoptosis entry in the series on apoptosis was “does not induce apoptosis”.
Regarding `C[C@@H]1C[C@H]2[C@@H]3CCC4=CC(=O)C=C[C@]4(C)[C@@]3(F)[C@@H](O)C[C@]2(C)[C@@]1(O)c1csc(NC(=O)c2ccc(Cl)cc2)n1` [Compound 27], the Emax in the series with NFkB was 49.7%. Moreover, the half-maximal inhibitory concentration (IC50) in the series on NFkB (setting [4]) is 10.9 nM. Moreover, in [2], the Emax was found to be 5.89% and the EC50 was 1640 nM.
Turning to `C[C@@H]1C[C@H]2[C@@H]3CCC4=CC(=O)C=C[C@]4(C)[C@@]3(F)[C@@H](O)C[C@]2(C)[C@@]1(O)C(=O)CO` [Dex, dexamethasone, reference compound], in the series with NFkB (setting [3]), the concentration for half-maximal inhibition (IC50) came out at 2.86 nM. The same compound gave a TR % with NFkB (comparison table) of 100%. Moreover, the TA % in [2] was found to be 100%.
Take `C[C@@H]1C[C@H]2[C@@H]3CCC4=CC(=O)C=C[C@]4(C)[C@@]3(F)[C@@H](O)C[C@]2(C)[C@@]1(O)C(=O)NCCOc1ccc(F)cc1` [Compound 5]: the Emax in the series with NFkB was 104%; in series [2], 27.2%. Further, the IC50 in the series on NFkB (setting [4]) is 8.13 nM. In addition, in series [2], the 50% effective concentration (EC50) is 321 nM.
The like results for `C[C@@H]1C[C@H]2[C@@H]3CCC4=CC(=O)C=C[C@]4(C)[C@@]3(F)[C@@H](O)C[C@]2(C)[C@@]1(O)c1csc(NC(=O)c2cccc(F)c2)n1` [Compound 26] were, in that order, 44.1%, 3.9%, 8.22 nM and 1530 nM.
